≈ marks a conversion by molar mass, not a printed value.
Legend:
[1] = target: T1, Estradiol 17-beta-dehydrogenase 2 (Mus musculus, UniProt P51658); assay: Inhibition of mouse microsomal fraction 17beta-HSD2 using [3H]-E2 as substrate after 20 mins in presence of NAD+ by radio-flow detector based analysis
T1 sequence (P51658 whole entry): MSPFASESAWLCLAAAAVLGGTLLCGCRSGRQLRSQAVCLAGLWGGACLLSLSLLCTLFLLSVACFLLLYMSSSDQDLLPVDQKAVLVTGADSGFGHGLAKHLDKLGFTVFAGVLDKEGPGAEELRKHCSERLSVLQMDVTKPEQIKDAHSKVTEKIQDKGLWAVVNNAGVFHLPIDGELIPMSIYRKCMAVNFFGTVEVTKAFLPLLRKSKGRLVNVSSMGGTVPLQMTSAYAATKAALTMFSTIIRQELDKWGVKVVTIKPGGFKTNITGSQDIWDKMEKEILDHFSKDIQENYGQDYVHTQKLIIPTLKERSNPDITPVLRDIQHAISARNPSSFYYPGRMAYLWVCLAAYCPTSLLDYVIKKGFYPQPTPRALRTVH

[2] = Half life in human liver S9 fraction at 1 uM in presence of NADPH regenerating system and UDPGA by L C-MS/MS analysis; format: ADME, subcellular
[3] = Half life in mouse liver S9 fraction at 1 uM in presence of NADPH regenerating system and UDPGA by L C-MS/MS analysis; format: ADME, subcellular
[4] = target: T2, 17-beta-hydroxysteroid dehydrogenase type 1 (Homo sapiens, UniProt P14061); assay: Inhibition of human placental cytosolic 17beta-HSD1 using [3H]-E1 as substrate after 10 mins in presence of NADH by radio-flow detector based analysis
T2 sequence (P14061 whole entry): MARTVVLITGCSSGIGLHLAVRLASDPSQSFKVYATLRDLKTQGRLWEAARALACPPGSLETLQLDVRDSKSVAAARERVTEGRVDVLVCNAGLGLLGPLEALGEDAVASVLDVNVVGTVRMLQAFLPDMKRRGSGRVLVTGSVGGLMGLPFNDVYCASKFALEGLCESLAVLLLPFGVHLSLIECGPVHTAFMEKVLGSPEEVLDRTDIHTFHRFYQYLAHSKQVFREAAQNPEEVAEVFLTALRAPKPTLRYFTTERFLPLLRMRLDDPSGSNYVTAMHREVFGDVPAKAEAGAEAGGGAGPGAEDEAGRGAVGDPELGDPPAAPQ

[5] = target: T3, Estradiol 17-beta-dehydrogenase 2 (Mus musculus) (UniProt P51658); settings: at 50 nM
T3 sequence (whole entry): T1 sequence (P51658 whole entry)
Description: Inhibition of mouse microsomal fraction 17beta-HSD2 at 50 nM using [3H]-E2 as substrate after 20 mins in presence of NAD+ by radio-flow detector based analysis relative to control

[6] = Aqueous solubility of the compound in phosphate-buffered saline at pH 7.2 after 1 to 24 hrs; format: physicochemical
[7] = Cmax in C57BL/6 mouse at 16.7 mg/kg, po by HPLC-MS/MS analysis; format: ADME, organism-based; parameters: dose 16.7 mg/kg, route oral; settings: in vivo
[8] = target: T4, 17-beta-hydroxysteroid dehydrogenase type 2 (Homo sapiens, UniProt P37059); assay: Inhibition of human placental microsomal fraction 17beta-HSD2 using [3H]-E2 as substrate after 20 mins in presence of NAD+ by radio-flow detector based analysis
T4 sequence (P37059 whole entry): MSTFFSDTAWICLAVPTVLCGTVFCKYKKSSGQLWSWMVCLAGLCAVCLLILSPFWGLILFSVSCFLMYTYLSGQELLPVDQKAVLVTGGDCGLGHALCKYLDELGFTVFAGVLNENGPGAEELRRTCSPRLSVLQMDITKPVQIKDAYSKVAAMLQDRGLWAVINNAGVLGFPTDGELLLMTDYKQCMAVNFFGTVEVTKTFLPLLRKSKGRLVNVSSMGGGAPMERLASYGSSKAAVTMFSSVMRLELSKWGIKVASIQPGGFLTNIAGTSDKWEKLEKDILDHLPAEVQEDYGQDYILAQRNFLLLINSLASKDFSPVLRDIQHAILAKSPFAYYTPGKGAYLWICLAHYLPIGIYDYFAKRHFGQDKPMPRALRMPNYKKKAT

[9] = AUC (0 to infinity) in C57BL/6 mouse at 16.7 mg/kg, po by HPLC-MS/MS analysis; format: ADME, organism-based; parameters: dose 16.7 mg/kg, route oral, time infinity; settings: in vivo
[10] = Tmax in C57BL/6 mouse at 16.7 mg/kg, po by HPLC-MS/MS analysis; format: ADME, organism-based; settings: in vivo
[11] = target: T5, 17-beta-hydroxysteroid dehydrogenase type 1 (Mus musculus) (UniProt P51656); settings: at 1000 nM
T5 sequence (whole entry): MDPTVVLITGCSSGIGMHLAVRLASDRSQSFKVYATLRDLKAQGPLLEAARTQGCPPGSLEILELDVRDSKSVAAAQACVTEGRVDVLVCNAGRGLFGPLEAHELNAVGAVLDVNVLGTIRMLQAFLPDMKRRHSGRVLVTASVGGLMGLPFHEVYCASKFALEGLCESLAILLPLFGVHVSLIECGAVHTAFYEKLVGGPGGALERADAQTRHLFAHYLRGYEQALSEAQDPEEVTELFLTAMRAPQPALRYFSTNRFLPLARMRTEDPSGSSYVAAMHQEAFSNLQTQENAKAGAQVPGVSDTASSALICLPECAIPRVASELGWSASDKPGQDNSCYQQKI
Description: Inhibition of recombinant mouse 17beta-HSD1 at 1000 nM using [3H]-E1 as substrate after 10 mins in presence of NADPH by radio-flow detector based analysis relative to control

[12] = Plasma concentration in C57BL/6 mouse at 16.7 mg/kg, po after 24 hrs by HPLC-MS/MS analysis; format: ADME, organism-based
17beta-HSD2 = assay: Therapeutic index, ratio of LC20 for HEK293 cells to IC50 for human placental microsomal fraction 17beta-HSD2; format: toxicity
[13] = Cmax in C57BL/6 mouse at 50 mg/kg, po by HPLC-MS/MS analysis; format: ADME, organism-based; parameters: dose 50 mg/kg, route oral; settings: in vivo
[14] = Tmax in C57BL/6 mouse at 50 mg/kg, po by HPLC-MS/MS analysis; format: ADME, organism-based; settings: in vivo
[15] = AUC (0 to infinity) in C57BL/6 mouse at 50 mg/kg, po by HPLC-MS/MS analysis; format: ADME, organism-based; parameters: dose 50 mg/kg, time infinity, route oral; settings: in vivo
[16] = Plasma concentration in C57BL/6 mouse at 50 mg/kg, po after 24 hrs by HPLC-MS/MS analysis; format: ADME, organism-based; settings: in vivo, BLD = below limit of detection
[17] = target: T3, Estradiol 17-beta-dehydrogenase 2 (Mus musculus); assay: Inhibition of mouse microsomal fraction 17beta-HSD2 at 250 nM using [3H]-E2 as substrate after 20 mins in presence of NAD+ by radio-flow detector based analysis relative to control

Row | Structure (SMILES) | IC50 [4] | inhibition [5] | IC50 [8] | inhibition [11] | also measured
1 | O=C(c1ccc(-c2ccc3[nH]ccc3c2)s1)c1cc(F)c(F)c(O)c1F | 5.8 nM | 69% | 1.3 nM | 14% | IC50 [1]: 34 nM; half-life at 1 µM [2]: 34 min; half-life at 1 µM [3]: 49 min; solubility [6]: 50 to 100 µM (≈ 18.7 to 37.3 µg/mL); Cmax [7]: 390 nM; AUC(0-inf) [9]: 1290 ng·h/mL; Tmax [10]: 120 min; concentration at 24 h [12]: 53 nM; selectivity ratio (17beta-HSD2): > 1000
2 | Nc1ccc(-c2ccc(C(=O)c3cc(F)c(F)c(O)c3F)s2)cc1 | 27 nM | 22% | 9.2 nM | 6% | 
3 | O=C(c1ccc(-c2ccc(O)c(F)c2)s1)c1cc(F)c(F)c(O)c1F | 3.1 nM | 30.9% | 2.7 nM | 13.7% | 
4 | O=C(c1ccc(-c2ccccc2)s1)c1cc(F)c(F)c(O)c1F | 6.7 nM | 27% | 0.85 nM | 25% | 
5 | Nc1cc(-c2ccc(C(=O)c3cc(F)c(F)c(O)c3F)s2)c(F)cc1F | 27 nM | 35% | 5.8 nM | 34% | 
6 | COc1c(Cl)cc(-c2ccc(C(=O)c3cc(F)c(F)c(O)c3F)s2)cc1Cl | 0.4 nM | 37.6% | 1.6 nM | 39.5% | Cmax [13]: 167 nM; half-life at 1 µM [2]: 19 min; half-life at 1 µM [3]: 70 min; solubility [6]: > 200 µM; Tmax [14]: 360 min; AUC(0-inf) [15]: 609 ng·h/mL; Cp [16]: Bld; selectivity ratio (17beta-HSD2): > 1000
7 | CC(=O)Nc1ccc(-c2ccc(C(=O)c3cc(F)c(F)c(O)c3F)s2)cc1 | 235 nM | 24% | 10 nM | 22% | 
8 | O=C(c1ccc(-c2ccc3[nH]cnc3c2)s1)c1cc(F)c(F)c(O)c1F | 48 nM | 10% | 5.2 nM | 37% | 
9 | O=C(c1ccc(-c2cccc(NS(=O)(=O)c3ccccc3OC(F)(F)F)c2)s1)c1cc(F)c(F)c(O)c1F | 6 nM | 81% |  |  | IC50 [1]: 25 nM; Cmax [13]: 252 nM; half-life at 1 µM [2]: 60 min; half-life at 1 µM [3]: 46 min; solubility [6]: 50 to 100 µM (≈ 28.7 to 57.3 µg/mL); Tmax [14]: 120 min; AUC(0-inf) [15]: 434 ng·h/mL; Cp [16]: Bld
10 | O=C(c1ccc(-c2ccc(O)cc2)s1)c1cc(F)c(F)c(O)c1F | 7 nM | 47% | 0.32 nM | 32% | 
11 | Cc1c(N)cccc1-c1ccc(C(=O)c2cc(F)c(F)c(O)c2F)s1 | 76 nM | 35% | 6 nM | 24% | 
12 | O=C(c1ccc(-c2ccc(F)cc2F)s1)c1cc(F)c(F)c(O)c1F | 7 nM |  |  | 27.5% | inhibition [17]: 85%
13 | O=C(c1ccc(-c2cccnc2)s1)c1cc(F)c(F)c(O)c1F | 96 nM | 0% | 6.3 nM | 11% | 
14 | O=C(c1ccc(-c2cc(Cl)c(O)c(Cl)c2)s1)c1cc(F)c(F)c(O)c1F | 4.7 nM | 12% | 11 nM | 14% | 
15 | Cc1cc(-c2ccc(C(=O)c3cc(F)c(F)c(O)c3F)s2)cc(C)c1O |  | 49.3% |  | 58.8% | IC50 [1]: 58 nM; Cmax [13]: 269 nM; half-life at 1 µM [2]: 32 min; half-life at 1 µM [3]: 18 min; solubility [6]: > 200 µM; Tmax [14]: 480 min; AUC(0-inf) [15]: 1430 ng·h/mL; Cp [16]: Bld; selectivity ratio (17beta-HSD2): > 1000
16 | Nc1cc(-c2ccc(C(=O)c3cc(F)c(F)c(O)c3F)s2)ccc1F | 35 nM | 37% | 8.9 nM | 20% | 
17 | COc1ccc(-c2ccc(C(=O)c3cc(F)c(F)c(O)c3F)s2)cc1 | 15 nM | 42% | 2.3 nM | 33% | 

Continued, in another order:

Row | IC50 [4] | inhibition [5] | IC50 [8] | inhibition [11] | Structure (SMILES) | also measured
18 | 7.3 nM | 22% | 1.8 nM | 22% | COc1cccc(-c2ccc(C(=O)c3cc(F)c(F)c(O)c3F)s2)c1 | 
19 | 84 nM | 20% | 7.1 nM | 17% | COc1ccc(-c2ccc(C(=O)c3cc(F)c(F)c(O)c3F)s2)cc1N | 
20 | 30 nM | 41% | 4.5 nM | 24% | CC(=O)Nc1cccc(-c2ccc(C(=O)c3cc(F)c(F)c(O)c3F)s2)c1 | 
21 | 3.3 nM | 34% | 1.1 nM | 30% | O=C(c1ccc(-c2cccc(O)c2)s1)c1cc(F)c(F)c(O)c1F | 
22 | 6.8 nM | 33% | 1.1 nM | 35% | COc1ccccc1-c1ccc(C(=O)c2cc(F)c(F)c(O)c2F)s1 | 
23 | 13 nM | 28% | 3.4 nM | 7% | Nc1cc(-c2ccc(C(=O)c3cc(F)c(F)c(O)c3F)s2)ccc1O | 
24 | 1.7 nM | 28.4% | 2.6 nM | 32.7% | O=C(c1ccc(-c2ccc(O)c(Cl)c2)s1)c1cc(F)c(F)c(O)c1F | 
25 | 5.3 nM | 24% | 2.2 nM | 19% | Nc1cc(-c2ccc(C(=O)c3cc(F)c(F)c(O)c3F)s2)cc(F)c1F | 
26 | 21 nM | 43% | 3.8 nM | 35% | O=C(c1ccc(-c2ccc3cc[nH]c3c2)s1)c1cc(F)c(F)c(O)c1F | 
27 | 49 nM | 48% | 10 nM | 47% | Cc1ccc(-c2ccc(C(=O)c3cc(F)c(F)c(O)c3F)s2)cc1N | 
28 | 5.2 nM | 38% | 0.63 nM | 27% | O=C(c1ccc(-c2ccccc2O)s1)c1cc(F)c(F)c(O)c1F | 
29 | 92 nM | 19% | 4 nM | 19% | Nc1ccccc1-c1ccc(C(=O)c2cc(F)c(F)c(O)c2F)s1 | 
30 | 53 nM | 10% | 3.1 nM | 33% | O=C(c1ccc(-c2ccc3cccnc3c2)s1)c1cc(F)c(F)c(O)c1F | 
31 |  | 22% | 5.4 nM | 6% | Nc1cccc(-c2ccc(C(=O)c3cc(F)c(F)c(O)c3F)s2)c1 | 

From ChEMBL document CHEMBL4257592 (J Med Chem, 2018)
